For this test, the system named is Radical scavenging activity. The test is described as follows: Antioxidant activity assessed as DPPH free radical scavenging activity after 30 mins by spectrophotometric assay.
Usually IC50 stands for the concentration that inhibits the measured activity by half. As to `O=C(/C=C/c1ccc(O)cc1)OC[C@H]1O[C@@H](OCCc2ccc(O)c(O)c2)[C@H](O)[C@@H](O)[C@@H]1O`, the concentration for half-maximal inhibition (IC50) was 18 µM. As for `C[C@@H]1O[C@@H](O[C@@H]2[C@@H](O)[C@H](OCCc3ccc(O)c(O)c3)O[C@H](CO)[C@H]2OC(=O)/C=C/c2ccc(O)c(O)c2)[C@H](O)[C@H](O)[C@H]1O` [ACETOSIDE], the IC50 stood at 20 µM. Take `Cc1cc(C(C)(C)C)c(O)c(C(C)(C)C)c1` [BUTYLATED HYDROXYTOLUENE]: the 50% inhibitory concentration (IC50) worked out at 40 µM. With `O=c1cc(-c2ccc(O)c(O)c2)oc2cc(O[C@@H]3O[C@H](CO)[C@@H](O)[C@H](O)[C@H]3O)c(O)c(O)c12`, the 50% inhibitory concentration (IC50) came out at 11 µM. Turning to `C[C@@H]1O[C@@H](O[C@@H]2[C@@H](O)[C@H](OCCc3ccc(O)c(O)c3)O[C@H](COC(=O)/C=C/c3ccc(O)c(O)c3)[C@H]2O)[C@H](O)[C@H](O)[C@H]1O` [ISOACTEOSIDE], the half-inhibitory concentration (IC50) was 20 µM. In the case of `O=C1C[C@@H](c2ccc(O)c(O)c2)Oc2cc(O[C@@H]3O[C@H](CO)[C@@H](O)[C@H](O)[C@H]3O[C@@H]3O[C@H](CO)[C@@H](O)[C@H](O)[C@H]3O)cc(O)c21`, the concentration for half-maximal inhibition (IC50) amounted to 12 µM. Regarding `O=c1cc(-c2ccc(O)c(O)c2)oc2cc(O[C@@H]3O[C@H](CO)[C@@H](O)[C@H](O)[C@H]3O[C@@H]3O[C@H](CO)[C@@H](O)[C@H](O)[C@H]3O)cc(O)c12`, the 50% inhibitory concentration (IC50) was determined as 12 µM. Take `C[C@@H]1O[C@@H](OC[C@H]2O[C@@H](OCCc3ccc(O)c(O)c3)[C@H](O)[C@@H](O)[C@@H]2OC(=O)/C=C/c2ccc(O)c(O)c2)[C@H](O)[C@H](O)[C@H]1O` [FORSYTHIASIDE]: the IC50 came out at 21 µM. For the molecule `O=c1cc(-c2ccc(O)c(O)c2)oc2cc(O[C@@H]3O[C@H](CO)[C@@H](O)[C@H](O[C@@H]4O[C@H](CO)[C@@H](O)[C@H](O)[C@H]4O)[C@H]3O)c(O)c(O)c12`, the IC50 stood at 8 µM.

(Values after ChEMBL document CHEMBL1141793, “Antioxidant constituents of the aerial parts of Globularia alypum growing in Morocco” (J Nat Prod, 2005).)
